pEC50: −log10 of the molar value.
Target: T1, GCS enzyme contained within Golgi preparations isolated from human A375 malignant melanoma skin cells (Homo sapiens, UniProt Q16739)
T1 construct: endogenous levels of GCS enzyme contained within Golgi preparations isolated from human A375 malignant melanoma skin cells; endogenous in cells; host or cells: A375 human malignant melanoma cells (crude Golgi preparation)
T1 sequence (Q16739 1-394): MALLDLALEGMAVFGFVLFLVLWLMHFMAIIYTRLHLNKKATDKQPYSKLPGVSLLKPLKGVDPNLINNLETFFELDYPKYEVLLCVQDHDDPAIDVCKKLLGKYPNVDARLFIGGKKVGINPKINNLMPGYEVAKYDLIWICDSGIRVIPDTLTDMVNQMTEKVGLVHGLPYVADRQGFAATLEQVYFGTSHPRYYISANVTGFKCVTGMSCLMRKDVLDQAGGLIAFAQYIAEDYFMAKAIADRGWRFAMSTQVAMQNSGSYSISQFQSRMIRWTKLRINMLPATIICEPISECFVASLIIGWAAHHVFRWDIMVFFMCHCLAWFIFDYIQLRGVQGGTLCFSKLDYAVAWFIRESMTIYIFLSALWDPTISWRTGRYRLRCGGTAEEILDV
Test: UDP-Glo glucosylceramide synthase biochemical assay
Conditions: crude Golgi preparation from A375 cells; C6 ceramide and UDP-glucose substrates; 20 h incubation at room temperature; UDP detected by luminescence
Text: UDP-Glo™ Glucosylceramide Synthase Biochemical Assay
A UDP-Glo™ glucosylceramide synthase biochemical assay was utilized to evaluate the effect of test compounds on the activity of endogenous levels of GCS enzyme contained within Golgi preparations isolated from human A375 malignant melanoma skin cells. The UDP-Glo™ glucosylceramide synthase assay uses UDP-Glucose as a nucleotide-glycosyl donor and ceramide as substrate acceptor molecules. In the reaction, glucosylceramide synthase (GCS) transfers glucose from UDP-Glucose to ceramide. Glucosylceramide and UDP are released as products.
Using Promega's UDP-Glo™ Glycosyltransferase assay kit (Promega Corporation, Madison, WI, USA (Promega)), GCS activity was indirectly measured by detecting the amount of UDP produced. An aliquot of GCS enzyme (1.5 μg crude golgi preparation, total protein) and titrated test compound were aliquoted to each well and incubated for 30 minutes at room temperature. […] An equivalent volume of substrate mixture was then added to each well. Following a 20 h incubation at room temperature to allow for GCS turnover of substrate, an equal volume of UDP detection reagent (Promega) was added to each well and incubated for an additional 75 minutes at room temperature to simultaneously convert the accumulated UDP product into ATP and generate light in a luciferase reaction. The generated light was detected using a luminometer. […] luminescence values (RLUs) were normalized to mean “min” and “max” effects, as determined on each plate. […] Values for % Emax and EC50 were determined by best-fitting the normalized data to a curve in Activity Base along a four-parameter logistic nonlinear regression (4PL) model (based on the Levenberg-Marquardt algorithm and defined by the equation below):
[formula] where: n is 4 PMin (bottom of the curve); m is 4 PMax (top of the curve); i is IP (inflection point of curve); and p is slope. See Levenberg, K., “A Method for the Solution of Certain Problems in Least Squares”, Quart. Appl. Math. […] Math.

Q: With `CN(C(=O)OC1CN2CCC1CC2)c1cccc2c1C(=O)N(c1ccc(F)cc1)C2` (racemic) [Compound 170, (R and S)-Quinuclidin-3-yl(2-(4-fluorophenyl)-3-oxoisoindolin-4-yl)(methyl)carbamate] as the molecule, how does the pEC50 read?
A: 6.89

Q: How did the pEC50 turn out when `CC(C)(O)[C@@H](C1CC1)N1Cc2cccc(NC(=O)c3cccn4nccc34)c2C1=O` [Compound 156, (R)-N-(2-(1-cyclopropyl-2-hydroxy-2-methylpropyl)-3-oxoisoindolin-4-yl)pyrazolo[1,5-a]pyridine-4-carboxamide] was run?
A: 9.01

Q: `CC(C)(O)C(C1CC1)N1Cc2cccc(NC(=O)c3cccc4ncsc34)c2C1=O` (single isomer, unassigned) [Compound 131, (R or S)-N-(2-(1-cyclopropyl-2-hydroxy-2-methylpropyl)-3-oxoisoindolin-4-yl)benzo[d]thiazole-7-carboxamide] was tested. Which pEC50 did it give?
A: 7.35

Q: With `Cc1cnc2c(c1C(=O)Nc1cccc3c1C(=O)N(C(C1CC1)C(C)(C)O)C3)OCO2` (single isomer, unassigned) [Compound 169, (R or S)—N-(2-(1-Cyclopropyl-2-hydroxy-2-methylpropyl)-3-oxoisoindolin-4-yl)-6-methyl-[1,3]dioxolo[4,5-b]pyridine-7-carboxamide] as the molecule, how does the pEC50 read?
A: 9.40

Q: `CC[C@@H](N1Cc2cccc(-c3ccc(-c4nnc(C)o4)cc3)c2C1=O)C(C)(C)O` [Compound 48, 2-[(1R)-1-ethyl-2-hydroxy-2-methyl-propyl]-7-[4-(5-methyl-1,3,4-oxadiazol-2-yl)phenyl]isoindolin-1-one] was tested. Which pEC50 did it give?
A: 7.09

Q: With `Cc1cnc(-c2ccc(-c3cccc4c3C(=O)N([C@H](C3CC3)C(C)(C)O)C4)cc2)o1` [Compound 64, (R)-2-(1-Cyclopropyl-2-hydroxy-2-methylpropyl)-7-(4-(5-methyloxazol-2-yl)phenyl)isoindolin-1-one] as the molecule, how does the pEC50 read?
A: 6.74

Q: `Cn1cc(-c2ccc(-c3cccc4c3C(=O)N(C(C(C)(C)O)C(F)(F)F)C4)cc2)cn1` (single isomer, unassigned) [Compound 43, (R or S)-7-(4-(1-methyl-1H-pyrazol-4-yl)phenyl)-2-(1,1,1-trifluoro-3-hydroxy-3-methylbutan-2-yl)isoindolin-1-one] was tested. Which pEC50 did it give?
A: 7.62

Q: With `Cc1nnc(-c2ccc(-c3ccc(Cl)c4c3C(=O)N([C@H](C3CC3)C(C)(C)O)C4)cc2)o1` [Compound 38, (R)-4-chloro-2-(1-cyclopropyl-2-hydroxy-2-methylpropyl)-7-(4-(5-methyl-1,3,4-oxadiazol-2-yl)phenyl)isoindolin-1-one] as the molecule, how does the pEC50 read?
A: 9.26

Q: With `CC(C)(O)C(C1CC1)N1Cc2cc(F)cc(-c3ccccc3OCC(F)(F)F)c2C1=O` (single isomer, unassigned) [Compound 23, (R or S)-2-(1-cyclopropyl-2-hydroxy-2-methylpropyl)-5-fluoro-7-(2-(2,2,2-trifluoroethoxy)phenyl) isoindolin-1-one] as the molecule, how does the pEC50 read?
A: 9.39

Q: `O=C(Nc1cccc2c1C(=O)N(c1ccc(F)cc1)C2)OC1CN2CCC1CC2` (centres unmarked) [Compound 150, Quinuclidin-3-yl(2-(4-fluorophenyl)-3-oxoisoindolin-4-yl)carbamate] was tested. Which pEC50 did it give?
A: 6.13

Q: With `COc1ccc(F)c(F)c1C(=O)Nc1cccc2c1C(=O)N(C(C1CC1)C(C)(C)O)C2` (single isomer, unassigned) [Compound 112, (R or S)-N-(2-(1-cyclopropyl-2-hydroxy-2-methylpropyl)-3-oxoisoindolin-4-yl)-2,3-difluoro-6-methoxybenzamide] as the molecule, how does the pEC50 read?
A: 9.39

Q: `Cn1cc(-c2ccc(-c3ccc(O)c4c3C(=O)N([C@H](C3CC3)C(C)(C)O)C4)cc2)cn1` [Compound 60, (R)-2-(1-cyclopropyl-2-hydroxy-2-methylpropyl)-4-hydroxy-7-(4-(1-methyl-1H-pyrazol-4-yl)phenyl) isoindolin-1-one] was tested. Which pEC50 did it give?
A: 8.03

Q: How did the pEC50 turn out when `O=C(Nc1cccc2c1C(=O)N(C(C1CC1)C1CC1)C2)c1c(Br)ccc2c1OCO2` [Compound 109, 5-Bromo-N-(2-(dicyclopropylmethyl)-3-oxoisoindolin-4-yl)-benzo[d][1,3]dioxole-4-carboxamide] was run?
A: 8.70

Q: How did the pEC50 turn out when `Cc1nnc(-c2ccc(-c3ccc(O)c4c3C(=O)N([C@H](C3CC3)C(C)(C)O)C4)cc2)o1` [Compound 58, (R)-2-(1-Cyclopropyl-2-hydroxy-2-methylpropyl)-4-hydroxy-7-(4-(5-methyl-1,3,4-oxadiazol-2-yl)phenyl)isoindolin-1-one] was run?
A: 7.55

Q: `Cc1nnc(-c2ccc(-c3cccc4c3C(=O)N([C@H](C3CC3)C(C)(C)O)C4)cc2C)o1` [Compound 71, (R)-2-(1-cyclopropy1-2-hydroxy-2-methylpropyl)-7-(3-methyl-4-(5-methyl-1,3,4-oxadiazol-2-yl)phenyl)isoindolin-1-one] was tested. Which pEC50 did it give?
A: 9.08

Q: With `CC(C)(O)[C@@H](C1CC1)N1Cc2cccc(-c3cccnc3OCC(F)(F)F)c2C1=O` [Compound 73, (R)-2-(1-cyclopropyl-2-hydroxy-2-methylpropyl)-7-(2-(2,2,2-trifluoroethoxy)pyridin-3-yl)isoindolin-1-one] as the molecule, how does the pEC50 read?
A: 7.26

Q: `O=C(Nc1cccc2c1C(=O)N(CC1(O)CCC1)C2)c1ccnc2c1CCC2` [Compound 166, N-(2-((1-hydroxycyclobutyl)methyl)-3-oxoisoindolin-4-yl)-6,7-dihydro-5H-cyclopenta[b]pyridine-4-carboxamide] was tested. Which pEC50 did it give?
A: 6.44

Q: `O=C(Nc1ccc(O)c2c1C(=O)N(CC1CC1)C2)c1ccnc2c1CCC2` [Compound 149, N-(2-(Cyclopropylmethyl)-7-hydroxy-3-oxoisoindolin-4-yl)-6,7-dihydro-5H-cyclopenta[b]pyridine-4-carboxamide] was tested. Which pEC50 did it give?
A: 6.05

Q: How did the pEC50 turn out when `Cc1cc2c(cnn2C)cc1-c1cccc2c1C(=O)N([C@H](C1CC1)C(C)(C)O)C2` [Compound 87, (R)-2-(1-cyclopropyl-2-hydroxy-2-methylpropyl)-7-(1,6-dimethyl-1H-indazol-5-yl)isoindolin-1-one] was run?
A: 8.02

Q: With `COc1ncc(Cl)c(C(=O)Nc2cccc3c2C(=O)N(C(C2CC2)C(C)(C)O)C3)c1C` (single isomer, unassigned) [Compound 154, (R or S)-5-Chloro-N-(2-(1-cyclopropyl-2-hydroxy-2-methylpropyl)-3-oxoisoindolin-4-yl)-2-methoxy-3-methylisonicotinamide] as the molecule, how does the pEC50 read?
A: 10.00

Q: How did the pEC50 turn out when `C[C@@H](C1CC1)N1Cc2cccc(NC(=O)c3ccnc4c3CCC4)c2C1=O` [Compound 140, (S)-N-(2-(1-cyclopropylethyl)-3-oxoisoindolin-4-yl)-6,7-dihydro-5H-cyclopenta[b]pyridine-4-carboxamide] was run?
A: 6.92

Q: How did the pEC50 turn out when `CC(C)(O)C(C1CC1)N1Cc2ccc(F)c(-c3ccccc3OCC(F)(F)F)c2C1=O` (single isomer, unassigned) [Compound 21, 2-((R or S)-1-cyclopropyl-2-hydroxy-2-methylpropyl)-6-fluoro-7-(2-(2,2,2-trifluoroethoxy)phenyl) isoindolin-1-one] was run?
A: 9.04

Q: With `O=C1c2c(cccc2-c2ccc(F)cc2)CN1CCC1CN2CCC1CC2` (racemic) [Compound 52, (R and S)-7-(4-fluorophenyl)-2-(2-(quinuclidin-3-yl)ethyl)isoindolin-1-one] as the molecule, how does the pEC50 read?
A: 6.80

Q: With `COc1cc(C#N)cc(-c2nccc3c2C(=O)N(C(C2CC2)C(C)(C)O)C3)c1` (single isomer, unassigned) [Compound 30, (R or S)-3-(2-(1-cyclopropyl-2-hydroxy-2-methylpropyl)-3-oxo-2,3-dihydro-1H-pyrrolo[3,4-c]pyridin-4-yl)-5-methoxybenzonitrile] as the molecule, how does the pEC50 read?
A: 7.02

Q: With `CCOc1ccccc1C(=O)Nc1cccc2c1C(=O)N([C@@H](CO)C(C)C)C2` [Compound 100, (R)-2-ethoxy-N-(2-(1-hydroxy-3-methylbutan-2-yl)-3-oxoisoindolin-4-yl)benzamide] as the molecule, how does the pEC50 read?
A: 6.82

— patent US12679807B2 (MERCK SHARP & DOHME LLC, priority 2020, dated 2026)
